Test results reported in patent US20240041976A1, “COMPOSITION AND USE” (priority 2020, published 2024).
Like-named read-outs stand apart in the source and are kept apart here. No end group written: not given here.

Columns and labels:
[1] = test system: three MRSA strains (ATCC33591-lux, USA-300 and MRSA 43484); experiment: AAMP assay and checkerboard synergy, summary; format: cell-based, Staphylococcus aureus; conditions: All three strains
Description: Briefly, equal amounts of antimicrobial A were applied on microtiter plate 1 in wells A1-H1 and then diluted two-fold to wells 2-12. Similarly, equal amounts of antimicrobial B were applied on microtiter plate 2 in wells A1-A12 and diluted two-fold in wells B-H. Volumes of 50 μl of antimicrobial A from each well of microtiter plate 1 were transferred into microtiter plate 3, except for wells H1-H12. Similarly, the same volumes were transferred from microtiter plate 2 into plate 3, except for wells A1-A8. […] A 50 μl volume of pure broth was added into each well in lines H1-H12 and A1-A8 which were used to estimate MIC values of pure substances (blank).
(§1) Three-component synergy was assessed by mixing the three components (100 μg of PenG, 50 μg of GarKS and 2.5 μg of MP1) into one well of a microtiter plate, compared with activity of individual antimicrobials on the same plate.

S. aureus LMG3328 = experiment: AAMP assay (MIC), single components and formulation mixture; format: cell-based, Staphylococcus aureus; conditions: Staphylococcus aureus, LMG3328, 24 h; read-out: MIC, single component
Description: (§2) Antimicrobial activity was measured using the AAMP assay (Wiegand et al., 2008, Nat. Protoc., Vol. 3(2), p 163-175).
as §1, with “plate. The fractional inhibition concentration (FIC) which was used to define synergy was calculated as set forth in Example 1.” for “plate.”

S. aureus LMG3263 = experiment: as above; format: cell-based, Staphylococcus aureus
Description: as §2
as §1, with “plate. The fractional inhibition concentration (FIC) which was used to define synergy was calculated as set forth in Example 1.” for “plate.”

S. aureus LMG3255 = experiment: as above; format: cell-based, Staphylococcus aureus
Description: as §2
as §1, with “plate. The fractional inhibition concentration (FIC) which was used to define synergy was calculated as set forth in Example 1.” for “plate.”

S. aureus LMG3242 = experiment: as above; format: cell-based, Staphylococcus aureus; conditions: Staphylococcus aureus, LMG3242, 24 h, read-out: MIC, single component
Description: as §2
as §1, with “plate. The fractional inhibition concentration (FIC) which was used to define synergy was calculated as set forth in Example 1.” for “plate.”

S. aureus LMG3322 = experiment: as above; format: cell-based, Staphylococcus aureus; conditions: Staphylococcus aureus, LMG3322, 24 h; read-out: MIC, single component
Description: as §2
as §1, with “plate. The fractional inhibition concentration (FIC) which was used to define synergy was calculated as set forth in Example 1.” for “plate.”

S. aureus LMG3265 = experiment: as above; format: cell-based, Staphylococcus aureus; conditions: Staphylococcus aureus, LMG3265, 24 h; read-out: MIC, single component
Description: as §2
as §1, with “plate. The fractional inhibition concentration (FIC) which was used to define synergy was calculated as set forth in Example 1.” for “plate.”

S. aureus LMG3266 = experiment: as above; format: cell-based, Staphylococcus aureus; conditions: Staphylococcus aureus, LMG3266, 24 h, read-out: MIC, single component
Description: as §2
as §1, with “plate. The fractional inhibition concentration (FIC) which was used to define synergy was calculated as set forth in Example 1.” for “plate.”

S. aureus LMG3271 = experiment: as above; format: cell-based, Staphylococcus aureus; conditions: Staphylococcus aureus, LMG3271, 24 h; read-out: MIC, single component
Description: as §2
as §1, with “plate. The fractional inhibition concentration (FIC) which was used to define synergy was calculated as set forth in Example 1.” for “plate.”

S. aureus LMG3026 = experiment: as above; format: cell-based, Staphylococcus aureus; conditions: Staphylococcus aureus, LMG3026, 24 h; read-out: MIC, single component
Description: as §2
as §1, with “plate. The fractional inhibition concentration (FIC) which was used to define synergy was calculated as set forth in Example 1.” for “plate.”

S. aureus LMG3307 = experiment: as above; format: cell-based, Staphylococcus aureus; conditions: Staphylococcus aureus, LMG3307, 24 h; read-out: MIC, single component
Description: as §2
as §1, with “plate. The fractional inhibition concentration (FIC) which was used to define synergy was calculated as set forth in Example 1.” for “plate.”

S. aureus LMG3314 = experiment: as above; format: cell-based, Staphylococcus aureus; conditions: Staphylococcus aureus, LMG3314, 24 h; read-out: MIC, single component
Description: as §2
as §1, with “plate. The fractional inhibition concentration (FIC) which was used to define synergy was calculated as set forth in Example 1.” for “plate.”

S. aureus LMG3264 = experiment: as above; format: cell-based, Staphylococcus aureus
Description: as §2
as §1, with “plate. The fractional inhibition concentration (FIC) which was used to define synergy was calculated as set forth in Example 1.” for “plate.”

S. aureus LMG3258 = experiment: as above; format: cell-based, Staphylococcus aureus; conditions: Staphylococcus aureus, LMG3258, 24 h; read-out: MIC, single component
Description: as §2
as §1, with “plate. The fractional inhibition concentration (FIC) which was used to define synergy was calculated as set forth in Example 1.” for “plate.”

[2] = test system: S. pseudintermedius MRSP 45; experiment: microbe, parasite or virus in culture; format: cell-based, Staphylococcus pseudintermedius; conditions: for MIC: Staphylococcus pseudintermedius, read-out: MIC, single component
Description: as §2
(§3) Synergy testing was done with a microtiter plate checkerboard assay as previously described (Orhan et al., 2005, J. Clin. Microbiol., Vol. 43(1), p 140-143). Briefly, equal amounts of antimicrobial A were applied on microtiter plate 1 in wells A1-H1 and then diluted two-fold to wells 2-12. Similarly, equal amounts of antimicrobial B were applied on microtiter plate 2 in wells A1-A12 and diluted two-fold in wells B-H. Volumes of 50 μl of antimicrobial A from each well of microtiter plate 1 were transferred into microtiter plate 3, except for wells H1-H12. Similarly, the same volumes were transferred from microtiter plate 2 into plate 3, except for wells A1-A8. A 100 μl volume of 25 times diluted ON bacterial culture of MRSA was transferred into each well of plate 3. A 50 μl volume of pure broth was added into each well in lines H1-H12 and A1-A8 which were used to estimate MIC values of pure substances (blank).
(§4) Antimicrobial activity was measured using the AAMP assay as described in Example 2.
(§5) Synergy testing was performed as in Example 2.

MRSA ATCC 33591-lux = experiment: AAMP assay and checkerboard synergy; format: cell-based, Staphylococcus aureus; conditions: MRSA ATCC 33591-lux
Description: as §2, §3
as §1, with “plate. The fractional inhibition concentration (FIC) which was used to define synergy was calculated as set forth in Example 1.” for “plate.”

MRSA USA-300 = experiment: AAMP assay and checkerboard synergy; format: cell-based, Staphylococcus aureus; conditions: for MIC of the antimicrobial in comb. with GarKS: MRSA USA-300
Description: as §2, §3
as §1, with “plate. The fractional inhibition concentration (FIC) which was used to define synergy was calculated as set forth in Example 1.” for “plate.”

MRSA 43484 = experiment: AAMP assay and checkerboard synergy; format: cell-based, Staphylococcus aureus; conditions: for MIC of the antimicrobial in comb. with GarKS: MRSA 43484
Description: as §2, §3
as §1, with “plate. The fractional inhibition concentration (FIC) which was used to define synergy was calculated as set forth in Example 1.” for “plate.”

MRSA ATCC 33591 = experiment: microbe, parasite or virus in culture; format: cell-based, Staphylococcus aureus
Description: as §2, §3, §4, §5

[3] = Staphylococcus aureus, 24 h, read-out: MIC, single antimicrobial
[4] = Staphylococcus aureus, MRSA, 24 h, read-out: MIC, single antimicrobial

Molecule: NC[C@H]1O[C@H](O[C@H]2[C@H](O)[C@@H](O[C@H]3O[C@H](CO)[C@@H](O)[C@H](N)[C@H]3O)[C@H](N)C[C@@H]2N)[C@H](O)[C@@H](O)[C@@H]1O [Kan, Kanamycin]
- MIC, single antimicrobial [1]: >125 µg/mL
- MIC [1, 3]: > 125 µg/mL
- MIC (S. aureus LMG3328): 32 µg/mL
- MIC (S. aureus LMG3263; Staphylococcus aureus, LMG3263, 24 h, read-out: MIC, single component): > 125 µg/mL
- MIC (S. aureus LMG3255; Staphylococcus aureus, LMG3255, 24 h, read-out: MIC, single component): > 125 µg/mL
- MIC (S. aureus LMG3242): > 125 µg/mL
- MIC (S. aureus LMG3322): 64 µg/mL
- MIC (S. aureus LMG3265): 64 µg/mL
- MIC (S. aureus LMG3266): > 125 µg/mL
- MIC (S. aureus LMG3271): 64 µg/mL
- MIC (S. aureus LMG3026): 16 µg/mL
- MIC (S. aureus LMG3307): 64 µg/mL
- MIC (S. aureus LMG3314): 64 µg/mL
- MIC (S. aureus LMG3264; Staphylococcus aureus, LMG3264, 24 h, read-out: MIC, single component): > 125 µg/mL
- MIC (S. aureus LMG3258): 125 µg/mL
- MIC ([2]; MRSP45, 24 h): > 1250 µg/mL
- MIC (MRSA ATCC 33591-lux; [3]): > 125 µg/mL
- MIC of the antimicrobial in comb. with GarKS (MRSA USA-300): 32/32 μg/ml
- MIC (MRSA USA-300; [4]): > 125 µg/mL
- MIC of the antimicrobial in comb. with GarKS (MRSA 43484): 32/32 μg/ml
- MIC (MRSA 43484; [4]): > 125 µg/mL

Molecule: CN(C)[C@@H]1C(O)=C(C(N)=O)C(=O)[C@@]2(O)C(O)=C3C(=O)c4c(O)cccc4[C@@](C)(O)[C@H]3C[C@@H]12 [Tet, Tetracycline]
- MIC (S. aureus LMG3263; Staphylococcus aureus, LMG3263, 24 h; read-out: MIC, single component): 2.4 µg/mL
- MIC (S. aureus LMG3255; Staphylococcus aureus, LMG3255, 24 h; read-out: MIC, single component): 2.4 µg/mL
- MIC (S. aureus LMG3322): < 0.3 µg/mL
- MIC (S. aureus LMG3265): 2.4 µg/mL
- MIC (S. aureus LMG3271): 2.4 µg/mL
- MIC (S. aureus LMG3026): 77 µg/mL
- MIC (S. aureus LMG3307): 0.6 µg/mL
- MIC (S. aureus LMG3264; Staphylococcus aureus, LMG3264, 24 h; read-out: MIC, single component): 2.4 µg/mL
- MIC of MP1 in comb. with the labelled antimicrobial (MRSA ATCC 33591): 0.08 µg/mL
- MIC of the labelled antimicrobial in comb. with MP1 (MRSA ATCC 33591): 10 µg/mL
- MIC (MRSA ATCC 33591; [3]): 150 µg/mL
- MIC ([2]; MRSP45, MRSP 45, 24 h, Table 8): 150 µg/mL
- MIC of the antimicrobial in comb. with GarKS (MRSA ATCC 33591-lux): 38 µg/mL
- MIC of the antimicrobial in comb. with GarKS (MRSA USA-300): 0.6 µg/mL
- MIC of the antimicrobial in comb. with GarKS (MRSA 43484): 0.6 µg/mL

Molecule: C=C(NC(=O)[C@@H](NC(=O)[C@H](Cc1c[nH]cn1)NC(=O)[C@@H](NC(=O)[C@H](CO)NC(=O)[C@@H]1CS[C@@H](C)[C@H]2NC(=O)[C@H](C)NC(=O)[C@H](NC(=O)[C@H](CCCCN)NC(=O)[C@H](CCSC)NC(=O)[C@H](CC(N)=O)NC(=O)[C@@H]3CS[C@@H](C)[C@@H](NC(=O)[C@H](CCCCN)NC(=O)[C@@H]4CS[C@@H](C)[C@@H](NC(=O)[C@@H]5CSC[C@@H](NC(=O)/C(=C/C)NC(=O)[C@@H](N)[C@@H](C)CC)C(=O)N[C@@H]([C@@H](C)CC)C(=O)NC(=C)C(=O)N[C@@H](CC(C)C)C(=O)N5)C(=O)N5CCC[C@H]5C(=O)NCC(=O)N4)C(=O)NCC(=O)N[C@@H](C)C(=O)N[C@@H](CC(C)C)C(=O)N[C@@H](CCSC)C(=O)NCC(=O)N3)[C@H](C)SC[C@H](NC2=O)C(=O)N[C@@H](CC(N)=O)C(=O)N1)[C@@H](C)CC)C(C)C)C(=O)N[C@@H](CCCCN)C(=O)O [nisinZ]
- MIC of MP1 in comb. with the labelled antimicrobial (MRSA ATCC 33591): 0.3 µg/mL
- MIC of the labelled antimicrobial in comb. with MP1 (MRSA ATCC 33591): 0.8 µg/mL
- MIC, single antimicrobial (MRSA ATCC 33591): >12.5 µg/mL

Molecule: MIKKFPNPYTLAAKLTTYEINWYKQQYGRYPWERPVA [EJ97 short]
- MIC, single component ([2]; 24 h): >25 µg/mL
